Reference: ChEMBL document CHEMBL1201862, “PubChem BioAssay data set” (2004)
Calls of active or inactive are those of the source.

What was measured:
HEK293 [1] = assay: cells; details: Homo sapiens
HEK293 [2] = assay: cells; details: Homo sapiens; remark: listed apart in the source
Nonstructural protein 1 = Nonstructural protein 1 (Influenza A virus, UniProt Q194T2); assay type: functional, Influenza A virus (A/California/07/2009(H1N1))
HEK293 [3] = assay: cells; assay type: functional, cell-based; details: Homo sapiens
[4] = target: T1, RNA-binding protein pos-1 (Caenorhabditis elegans, UniProt G5EF15); assay: disruptors of C. elegans POS-1 RNA interaction – biochemical, fluorescence polarization, dose response (AID 1964);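 further: purified POS-1 fused to maltose binding protein made in E. coli; potency of compounds blocking POS-1 binding to fluorescent RNA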
T1 sequence (G5EF15 whole entry): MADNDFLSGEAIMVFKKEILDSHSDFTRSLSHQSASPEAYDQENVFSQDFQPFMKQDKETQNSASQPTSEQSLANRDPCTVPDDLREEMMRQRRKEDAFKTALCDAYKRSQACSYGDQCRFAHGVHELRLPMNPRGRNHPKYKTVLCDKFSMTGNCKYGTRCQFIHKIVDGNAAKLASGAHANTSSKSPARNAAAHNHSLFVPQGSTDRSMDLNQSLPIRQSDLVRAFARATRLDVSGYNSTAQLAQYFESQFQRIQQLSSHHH

HEK293 [5] = assay: cells; assay type: functional, cell-based; details: Homo sapiens; remark: listed apart in the source
HEK293 [6] = assay: cells; assay type: functional, cell-based; details: Homo sapiens; remark: listed apart in the source
HEK293 [7] = assay: inhibition of NOD1-driven NF-kB reporter – cell-based, luminescence, uHTS, primary screen (AID 1578); assay type: functional; details: Homo sapiens
HEK293 [8] = assay: NOD2 signaling inhibitors in MDP-stimulated cells, cell-based, uHTS, luminescence (AID 2001); assay type: functional; details: Homo sapiens
[9] = target: Nucleotide-binding oligomerization domain-containing protein 2 (Homo sapiens, UniProt Q9HC29); assay: inhibition of NOD2-driven NF-kB reporter – cell-based, luminescence, uHTS, HEK293 (AID 1566); assay type: functional
Beta Lactamase = Beta Lactamase (Pseudomonas aeruginosa, UniProt Q932Y6); assay: BLA reporter interference, concentration series – BLA reporter cells, FRET fluorescence, artefact control for TLR9-MyD88 binding inhibitor project, dose response (AID 588341); assay type: cell-based;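 further: cell based assay in CHO-K1 cells stably expressing beta-lactamase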
CHO = CHO cell viability loss, potency – luminescence, cytotoxicity control for TLR9-MyD88 binding inhibitor project, dose response (AID 588339); assay type: functional, cell-based, hamster; details: Cricetulus griseus;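 further: CHO cells stably coexpressing TLR9 and MyD88 fusions from primary screen; compound exposure lasted 48 hours before viability readout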
Streptococcus = assay: GAS UMAA2166 growth inhibition – luminescence, BacTiterGlo, counter-screen for streptokinase expression inhibitor project, dose response (AID 1915); assay type: functional, organism-based;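 further: potency for reduction of bacterial viability or growth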
[10] = viability of uninfected HEp-2 cells – cell-based, HTS, cytotoxicity control for RSV inhibitor project, dose response (AID 2410); assay type: functional; details: human respiratory syncytial virus
[11] = system: Streptococcus sp. 'group A'; assay: Streptococcus pyogenes SK(-)GAS viability under kanamycin – luminescence, BacTiterGlo, confirmation, counter-screen for streptokinase expression inhibitor project, dose response (AID 1900); assay type: functional, organism-based
[12] = Trypanosoma cruzi growth suppression in host cells – NIH3T3 host cells, beta-gal luminescence, confirmation (AID 2044); assay type: functional, cell-based;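 further: intracellular parasites grown in NIH/3T3 mouse fibroblasts as host cells; luminescent beta-galactosidase reporter signal from transgenic T. cruzi replicating inside host cells; inhibitors lower the luminescence signal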
[13] = Vero E6 cell cytotoxicity, dose response, cytotoxicity control for non-replicating M. tuberculosis project, secondary assay (AID 492998); assay type: functional, VeroE6; details: Vero C1008
[14] = THP-1 cell cytotoxicity, dose response, cytotoxicity control for non-replicating M. tuberculosis project (AID 489025); assay type: functional
cells = assay type: functional
Exodeoxyribonuclease V = target: T2, Exodeoxyribonuclease V (Escherichia coli (strain K12), UniProt P04993+P07648+P08394); assay: RecBCD inhibition via phage-restricted bacterial growth – absorbance, V66 E. coli, mutant T4 phage, counter-screen for AddAB inhibitor project, dose response (AID 492957); assay type: functional, cell-based, Escherichia coli str. K-12 substr. MG1655
T2 sequence (P04993 whole entry): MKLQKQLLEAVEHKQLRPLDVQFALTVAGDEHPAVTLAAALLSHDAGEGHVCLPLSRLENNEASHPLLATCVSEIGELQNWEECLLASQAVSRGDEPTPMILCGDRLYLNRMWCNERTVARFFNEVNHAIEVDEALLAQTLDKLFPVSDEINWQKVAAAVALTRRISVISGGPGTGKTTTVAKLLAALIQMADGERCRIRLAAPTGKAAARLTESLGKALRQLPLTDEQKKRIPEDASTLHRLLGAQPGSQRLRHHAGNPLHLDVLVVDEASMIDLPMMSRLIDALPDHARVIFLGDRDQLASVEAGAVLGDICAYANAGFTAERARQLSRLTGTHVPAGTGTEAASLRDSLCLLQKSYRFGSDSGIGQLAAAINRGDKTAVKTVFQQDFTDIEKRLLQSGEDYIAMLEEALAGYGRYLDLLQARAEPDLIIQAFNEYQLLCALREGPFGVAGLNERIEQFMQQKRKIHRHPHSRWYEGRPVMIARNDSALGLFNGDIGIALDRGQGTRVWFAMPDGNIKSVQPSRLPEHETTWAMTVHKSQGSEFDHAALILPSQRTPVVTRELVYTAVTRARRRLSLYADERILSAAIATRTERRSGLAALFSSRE
T2 sequence (P07648 whole entry): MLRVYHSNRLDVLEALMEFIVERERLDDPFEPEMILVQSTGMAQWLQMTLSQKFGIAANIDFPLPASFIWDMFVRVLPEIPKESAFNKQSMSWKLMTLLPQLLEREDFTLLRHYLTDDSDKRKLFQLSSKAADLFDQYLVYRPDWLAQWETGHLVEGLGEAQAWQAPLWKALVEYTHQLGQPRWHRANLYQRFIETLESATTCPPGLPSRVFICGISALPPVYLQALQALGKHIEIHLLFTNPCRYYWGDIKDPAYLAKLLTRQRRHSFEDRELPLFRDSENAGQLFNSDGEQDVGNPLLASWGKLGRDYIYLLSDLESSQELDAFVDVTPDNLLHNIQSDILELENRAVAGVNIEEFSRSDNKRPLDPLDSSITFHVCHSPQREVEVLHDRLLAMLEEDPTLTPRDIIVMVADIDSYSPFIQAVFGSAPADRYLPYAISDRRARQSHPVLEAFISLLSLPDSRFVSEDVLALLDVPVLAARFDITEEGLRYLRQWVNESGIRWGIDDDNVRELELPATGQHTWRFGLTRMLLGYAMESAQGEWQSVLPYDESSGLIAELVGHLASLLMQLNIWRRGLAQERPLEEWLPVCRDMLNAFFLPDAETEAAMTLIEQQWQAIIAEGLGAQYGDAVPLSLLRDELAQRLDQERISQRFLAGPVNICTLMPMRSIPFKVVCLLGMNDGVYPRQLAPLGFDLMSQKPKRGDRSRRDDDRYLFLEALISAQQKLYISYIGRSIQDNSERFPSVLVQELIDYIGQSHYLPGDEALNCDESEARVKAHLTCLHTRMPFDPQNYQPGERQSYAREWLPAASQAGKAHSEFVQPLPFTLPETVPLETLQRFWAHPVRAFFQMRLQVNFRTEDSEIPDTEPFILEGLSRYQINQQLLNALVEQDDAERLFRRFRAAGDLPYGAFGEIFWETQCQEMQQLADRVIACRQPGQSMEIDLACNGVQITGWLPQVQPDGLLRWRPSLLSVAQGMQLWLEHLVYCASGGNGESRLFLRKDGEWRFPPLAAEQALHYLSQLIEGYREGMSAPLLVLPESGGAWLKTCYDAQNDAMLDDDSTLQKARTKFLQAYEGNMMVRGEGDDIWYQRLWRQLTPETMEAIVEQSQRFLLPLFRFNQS
T2 sequence (P08394 whole entry): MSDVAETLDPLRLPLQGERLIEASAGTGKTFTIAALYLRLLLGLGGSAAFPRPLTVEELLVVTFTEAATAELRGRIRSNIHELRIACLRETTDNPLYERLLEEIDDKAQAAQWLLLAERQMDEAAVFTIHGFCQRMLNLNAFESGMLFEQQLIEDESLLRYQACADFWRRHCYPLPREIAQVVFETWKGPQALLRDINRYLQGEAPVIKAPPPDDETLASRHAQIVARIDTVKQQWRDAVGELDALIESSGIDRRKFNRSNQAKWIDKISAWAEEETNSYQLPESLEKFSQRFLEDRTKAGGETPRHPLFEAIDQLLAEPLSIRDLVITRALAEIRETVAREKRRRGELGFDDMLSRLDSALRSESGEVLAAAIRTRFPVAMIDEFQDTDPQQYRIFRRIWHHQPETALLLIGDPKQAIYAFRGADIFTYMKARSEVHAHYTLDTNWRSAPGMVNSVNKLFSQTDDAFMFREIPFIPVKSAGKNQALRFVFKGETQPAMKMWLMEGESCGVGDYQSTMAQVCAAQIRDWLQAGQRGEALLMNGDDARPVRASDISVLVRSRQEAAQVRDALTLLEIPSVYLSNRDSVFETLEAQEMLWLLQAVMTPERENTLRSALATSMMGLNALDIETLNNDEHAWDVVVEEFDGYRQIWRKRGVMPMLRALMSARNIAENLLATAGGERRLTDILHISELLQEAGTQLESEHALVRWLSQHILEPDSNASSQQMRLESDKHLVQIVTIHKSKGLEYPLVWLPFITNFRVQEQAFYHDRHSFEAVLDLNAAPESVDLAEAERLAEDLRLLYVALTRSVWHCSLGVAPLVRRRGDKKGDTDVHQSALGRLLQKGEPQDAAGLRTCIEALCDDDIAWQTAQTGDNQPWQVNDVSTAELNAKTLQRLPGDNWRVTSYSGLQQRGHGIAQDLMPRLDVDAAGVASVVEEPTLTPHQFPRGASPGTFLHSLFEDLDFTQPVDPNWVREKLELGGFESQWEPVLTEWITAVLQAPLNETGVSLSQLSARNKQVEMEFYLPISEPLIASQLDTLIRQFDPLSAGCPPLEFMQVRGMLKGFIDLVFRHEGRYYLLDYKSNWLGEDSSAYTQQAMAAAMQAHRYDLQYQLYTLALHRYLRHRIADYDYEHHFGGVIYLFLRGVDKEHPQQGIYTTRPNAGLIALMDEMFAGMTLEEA

[15] = Counterscreen for AddAB inhibitors: absorbance-based bacterial cell-based high throughput dose response assay for inhibitors of bacterial viability. [Related pubchem assays (depositor defined):AID435030, AID449728, AID449731, AID488942, AID488955, AID488956]; assay type: functional
[16] = NIH3T3 cell viability loss – ATP luminescence, mouse fibroblasts, counter-screen, dose response (AID 2010); assay type: functional, cell-based;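 further: cells exposed to compound for about 90 hours before reading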
[17] = Luminescence Cell-Based Dose Retest to Confirm Inhibitors of Cancer Stem Cells. [Related pubchem assays (depositor defined):AID2717, AID2721]; assay type: functional; details: Homo sapiens
[18] = NIH-3T3 fibroblast cytotoxicity, dose response, cytotoxicity control, cell-based, fluorescence, Alamar Blue, secondary assay (AID 2327); assay type: functional;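 further: NIH-3T3 mouse fibroblasts cultured with fluconazole at 8 µg/mL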
[19] = fluconazole-exposed Candida albicans growth modulators – fluorescence, retest, confirmation (AID 2467); assay type: functional, cell-based
Cytochrome P450 3A4 = Cytochrome P450 3A4 (Homo sapiens, UniProt P08684);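 further: CYP3A4 tested as one member of a cytochrome P450 panel screen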
Cytochrome P450 2C9 = Cytochrome P450 2C9 (Homo sapiens, UniProt P11712)
Cytochrome P450 2C19 = Cytochrome P450 2C19 (Homo sapiens, UniProt P33261); assay: Cytochrome panel assay with activity outcomes. Panel member name: p450-cyp2c19 Compounds with AC50 equal or less than 10 uM are considered active; assay type: functional; details: read-out: AC50
Cytochrome P450 2C19, sequence (P33261 whole entry): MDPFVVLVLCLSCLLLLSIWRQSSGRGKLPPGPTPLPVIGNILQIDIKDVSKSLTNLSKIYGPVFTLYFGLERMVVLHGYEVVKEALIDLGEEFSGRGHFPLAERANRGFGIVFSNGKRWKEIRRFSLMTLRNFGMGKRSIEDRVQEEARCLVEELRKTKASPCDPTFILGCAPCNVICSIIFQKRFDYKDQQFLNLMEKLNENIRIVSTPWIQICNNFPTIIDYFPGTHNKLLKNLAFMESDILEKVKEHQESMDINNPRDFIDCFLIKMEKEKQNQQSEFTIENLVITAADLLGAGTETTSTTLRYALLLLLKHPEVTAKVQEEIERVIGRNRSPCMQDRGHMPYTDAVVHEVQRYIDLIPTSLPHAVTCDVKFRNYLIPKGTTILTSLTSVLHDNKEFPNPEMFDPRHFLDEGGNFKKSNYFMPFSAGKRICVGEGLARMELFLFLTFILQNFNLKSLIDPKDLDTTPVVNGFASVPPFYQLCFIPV

Cytochrome P450 3A4, sequence (P08684 whole entry): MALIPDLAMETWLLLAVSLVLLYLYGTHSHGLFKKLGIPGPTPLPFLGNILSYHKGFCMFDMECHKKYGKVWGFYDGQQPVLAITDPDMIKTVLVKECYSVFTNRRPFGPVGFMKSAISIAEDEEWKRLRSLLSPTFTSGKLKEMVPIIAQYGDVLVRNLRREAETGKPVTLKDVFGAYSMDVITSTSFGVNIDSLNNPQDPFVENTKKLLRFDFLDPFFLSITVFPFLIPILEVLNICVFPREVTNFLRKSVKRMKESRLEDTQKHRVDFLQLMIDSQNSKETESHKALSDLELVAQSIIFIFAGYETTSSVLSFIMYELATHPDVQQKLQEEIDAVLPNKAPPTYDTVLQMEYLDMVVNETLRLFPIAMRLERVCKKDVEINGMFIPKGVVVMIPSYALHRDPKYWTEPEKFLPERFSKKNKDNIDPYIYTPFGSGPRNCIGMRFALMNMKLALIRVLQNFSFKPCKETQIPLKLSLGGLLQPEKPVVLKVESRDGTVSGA
Beta Lactamase, sequence (Q932Y6 whole entry, the tested form may be a part): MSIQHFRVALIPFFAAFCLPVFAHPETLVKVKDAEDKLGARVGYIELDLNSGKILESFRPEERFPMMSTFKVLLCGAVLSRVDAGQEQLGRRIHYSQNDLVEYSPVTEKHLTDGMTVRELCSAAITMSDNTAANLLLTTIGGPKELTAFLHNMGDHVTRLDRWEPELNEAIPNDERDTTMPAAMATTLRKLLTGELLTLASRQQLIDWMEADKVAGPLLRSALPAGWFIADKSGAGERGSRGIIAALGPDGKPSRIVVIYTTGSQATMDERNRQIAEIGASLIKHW
Nucleotide-binding oligomerization domain-containing protein 2, sequence (Q9HC29 whole entry, the tested form may be a part): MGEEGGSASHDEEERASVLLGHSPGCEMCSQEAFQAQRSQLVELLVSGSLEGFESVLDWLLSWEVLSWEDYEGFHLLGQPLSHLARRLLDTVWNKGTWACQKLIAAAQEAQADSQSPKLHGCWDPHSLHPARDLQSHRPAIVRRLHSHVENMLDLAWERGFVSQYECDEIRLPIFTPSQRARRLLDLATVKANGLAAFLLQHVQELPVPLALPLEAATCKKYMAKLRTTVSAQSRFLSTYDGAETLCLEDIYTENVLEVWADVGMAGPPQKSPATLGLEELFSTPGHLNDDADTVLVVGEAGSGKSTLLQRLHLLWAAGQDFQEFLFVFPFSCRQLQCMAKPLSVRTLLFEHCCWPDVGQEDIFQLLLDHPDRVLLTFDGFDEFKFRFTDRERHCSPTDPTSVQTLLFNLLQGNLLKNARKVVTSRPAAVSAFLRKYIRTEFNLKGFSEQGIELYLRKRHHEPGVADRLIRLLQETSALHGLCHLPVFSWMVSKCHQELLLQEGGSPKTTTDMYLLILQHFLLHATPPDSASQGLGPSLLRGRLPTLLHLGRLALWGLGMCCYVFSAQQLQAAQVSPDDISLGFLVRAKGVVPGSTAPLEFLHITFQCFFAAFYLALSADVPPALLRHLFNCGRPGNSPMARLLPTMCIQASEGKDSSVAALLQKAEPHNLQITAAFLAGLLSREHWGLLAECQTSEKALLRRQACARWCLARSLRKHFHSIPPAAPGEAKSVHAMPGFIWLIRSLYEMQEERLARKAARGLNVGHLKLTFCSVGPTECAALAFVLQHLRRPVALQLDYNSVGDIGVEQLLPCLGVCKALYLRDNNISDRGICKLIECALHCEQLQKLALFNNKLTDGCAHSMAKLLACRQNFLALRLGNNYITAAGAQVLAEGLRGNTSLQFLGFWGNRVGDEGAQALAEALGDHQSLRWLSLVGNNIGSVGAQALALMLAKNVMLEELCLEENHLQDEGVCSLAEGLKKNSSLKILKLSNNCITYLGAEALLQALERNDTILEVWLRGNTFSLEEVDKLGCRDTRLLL
Cytochrome P450 2C9, sequence (P11712 whole entry): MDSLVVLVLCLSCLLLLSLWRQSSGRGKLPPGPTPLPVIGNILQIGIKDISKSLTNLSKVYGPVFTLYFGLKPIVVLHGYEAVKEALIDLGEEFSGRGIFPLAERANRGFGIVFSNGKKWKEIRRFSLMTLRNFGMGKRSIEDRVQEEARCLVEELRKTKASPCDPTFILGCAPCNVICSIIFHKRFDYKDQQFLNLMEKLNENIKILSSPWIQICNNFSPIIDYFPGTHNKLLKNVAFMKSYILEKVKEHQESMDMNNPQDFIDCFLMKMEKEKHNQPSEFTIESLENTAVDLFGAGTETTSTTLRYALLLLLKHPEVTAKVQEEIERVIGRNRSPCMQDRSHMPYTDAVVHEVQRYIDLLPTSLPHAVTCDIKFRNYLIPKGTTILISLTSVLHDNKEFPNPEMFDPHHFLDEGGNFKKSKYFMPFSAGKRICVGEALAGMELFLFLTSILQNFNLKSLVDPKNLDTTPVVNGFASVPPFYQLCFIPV
Nonstructural protein 1, sequence (Q194T2 whole entry): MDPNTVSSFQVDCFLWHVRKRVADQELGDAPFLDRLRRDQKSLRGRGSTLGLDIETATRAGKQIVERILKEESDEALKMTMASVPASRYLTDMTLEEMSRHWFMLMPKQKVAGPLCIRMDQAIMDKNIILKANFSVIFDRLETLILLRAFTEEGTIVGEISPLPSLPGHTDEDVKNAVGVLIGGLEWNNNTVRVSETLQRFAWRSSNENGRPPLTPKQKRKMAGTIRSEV

With Cc1cccc(/C=N/NC(=O)c2cccc([N+](=O)[O-])c2)n1 the EC50 (HEK293 [1]) was > 59.6 µM (inactive) and the EC50 (HEK293 [2]) was > 59.6 µM (inactive).
With CN(C)c1ccc(N=Nc2ccccc2C(=O)OCC(=O)NC2CCCC2)cc1 the IC50 (Nonstructural protein 1) was 20.4 µM (active).
In the case of COc1ccccc1-c1ccc2c(c1)C(C)(Cc1cccc(C#N)c1)C(=O)N2 (configuration not stated), the EC50 (HEK293 [1]) is reported as > 59.6 µM (inactive) and the EC50 (HEK293 [2]) is reported as > 59.6 µM (inactive).
In the case of CCOc1cc(/C=C2\C(=N)N3N=C(S(C)(=O)=O)SC3=NC2=O)ccc1OCCOc1cccc(OC)c1, the IC50 (HEK293 [3]) is reported as > 20 µM (inactive), the EC50 [4] is reported as > 300 µM (not active) and the IC50 (HEK293 [5]) is reported as > 20 µM (inactive). The IC50 (HEK293 [6]) was > 20 µM (inactive), the EC50 (HEK293 [7]) was > 20 µM (inactive) and the IC50 (HEK293 [8]) was > 20 µM (inactive). The EC50 [9] was 14.5 µM (active).
With Cn1c2ccccc2c(=O)c2ccc(C#Cc3ccc(N)cc3)cc21 the IC50 (Beta Lactamase) was 5.26 µM (active), the IC50 (CHO) was > 49.8 µM (inactive) and the EC50 (Streptococcus) was 2.12 µM (active). The CC50 [10] was > 50 µM (active) and the EC50 [11] was 1.92 µM (active).
With CCCn1c(NC(=O)c2ccc([N+](=O)[O-])o2)nc2ccccc21 the EC50 [12] was 0.128 µM (active), the CC50 [13] was 13.3 µM (active) and the CC50 [14] was 17.1 µM (active). The IC50 (cells) was 1.51 µM (active), the IC50 (Exodeoxyribonuclease V) was > 118 µM (inactive) and the IC50 [15] was > 118 µM (inactive). For the same compound, the EC50 [16] was > 30 µM (not active).
With Cc1ccsc1/C=C/c1ccc2cccc(O)c2n1 the AC50 [17] was 6.83 µM (active), the EC50 (HEK293 [1]) was > 59.7 µM (inactive) and the EC50 (HEK293 [2]) was > 59.7 µM (inactive).
In the case of C/C(=N\Nc1ccc([N+](=O)[O-])cc1)c1ccc2c(c1)OCO2, the IC50 (Beta Lactamase) is reported as 12.5 µM (inactive), the IC50 (CHO) is reported as > 49.7 µM (inactive) and the EC50 [18] is reported as > 150 µM (inactive). The EC50 [19] was > 38 µM (not active).
In the case of O=C(Cc1ccccc1)Nc1nc(=O)c2ccccc2s1, the AC50 (Cytochrome P450 3A4) is reported as “inconclusive”, the AC50 (Cytochrome P450 2C9) is reported as 3.55 µM (inconclusive) and the AC50 (Cytochrome P450 2C19) is reported as 2.82 µM (inconclusive).
In the case of O=C(c1cccc(F)c1)N1CCC2(CC1)CN(c1ncccn1)C2, the AC50 (Cytochrome P450 3A4) is reported as “inconclusive”.
With COc1ccc(CN2CCC2(C)C(=O)Nc2cccc(NS(C)(=O)=O)c2)c2ccccc12 (configuration not stated) the EC50 (HEK293 [1]) was > 59.7 µM (inactive) and the EC50 (HEK293 [2]) was > 59.7 µM (inactive).
